One assay deals with T1, human cathepsin F (Homo sapiens, UniProt Q9UBX1).
T1 sequence (Q9UBX1 271-484): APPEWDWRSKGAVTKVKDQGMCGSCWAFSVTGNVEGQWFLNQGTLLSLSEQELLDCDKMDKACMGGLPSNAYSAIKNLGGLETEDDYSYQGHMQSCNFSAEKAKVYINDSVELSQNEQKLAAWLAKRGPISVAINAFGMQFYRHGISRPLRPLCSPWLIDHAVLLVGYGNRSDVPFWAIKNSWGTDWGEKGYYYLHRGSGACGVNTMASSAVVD
The experiment in a line: Cathepsin F assay (hCat F). Type of assay: biochemical. Particulars: human cathepsin F 10 nM, Z-Phe-Arg-AMC 8 μM, pH 5.5, 15 min preincubation; read-out: hCat F IP. An outline of the steps:
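Fluorogenic read-out: cleavage of Z-Phe-Arg-AMC (8 μM in added buffer) was followed at Ex 360/Em 460 nm for 20 min, with dose-response fitting of percent inhibition. Before substrate addition, 10 nM human enzyme was incubated 15 min at room temperature with compounds (DMSO stocks 500–0.025 μM) in pH 5.5 MES/EDTA/DTT buffer containing 10% DMSO.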

The next assay concerns the target human cathepsin K (UniProt P43236). Briefly: Cathepsin K Assay (hrbCat K). The note with it: human cathepsin K 0.4 nM, Z-Leu-Arg-AMC 8 μM, pH 5.5, 15 min preincubation; read-out: hrbCat K IP. Type of assay: biochemical. An outline of the steps:
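Human cathepsin K (0.4 nM) in pH 5.5 MES buffer with EDTA, DTT and 10% DMSO was preincubated 15 min at room temperature with compound from a ⅓ dilution series (500-0.025 μM DMSO stocks). Z-Leu-Arg-AMC (8 μM) was then added, and AMC release was followed fluorometrically (Ex 360/Em 460 nm) for 30 min; inhibition was fitted to a dose-response model.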

Consider `N#CC1(NC(=O)[C@@H]2CCCC[C@H]2c2oc(-c3ccc(Cl)cc3)nc2-c2ccc(N3CCS(=O)(=O)CC3)cc2)CC1` [Example 38, (1R,2R)-2-(2-(4-chlorophenyl)-4-(4-(1,1-dioxidothiomorpholino)phenyl)oxazol-5-yl)-N-(1-cyanocyclopropyl) cyclohexanecarboxamide], for which the values for the IC50 at human cathepsin F and at human cathepsin K were 308 nM and 1.28 nM, respectively.
Regarding `CS(=O)(=O)C1CN(c2ccc(-c3nc(-c4ccc(F)cc4F)oc3[C@@H]3CCCC[C@H]3C(=O)NC3(C#N)CC3)cc2)C1` [Example 39, (1R,2R)-N-(1-cyanocyclopropyl)-2-(2-(2,4-difluorophenyl)-4-(4-(3-(methylsulfonyl)azetidin-1-yl)phenyl)oxazol-5-yl) cyclohexanecarboxamide], the figures for the IC50 on human cathepsin F and on human cathepsin K were 702 nM and 2.11 nM, respectively.
For `N#CC1(NC(=O)[C@@H]2CCCC[C@H]2c2oc(-c3ccc(C(F)(F)F)nc3)nc2-c2ccc(N3CCS(=O)(=O)CC3)cc2)CC1` [Example 40, (1R,2R)-N-(1-cyanocyclopropyl)-2-(4-(4-(1,1 dioxidothiomorpholino)phenyl)-2-(6-(trifluoromethyl)pyridin-3-yl)oxazol-5-yl)cyclohexane carboxamide], in that order: 2220 nM and 1.42 nM.
For `N#CC1(NC(=O)[C@@H]2C[C@@H](F)CC[C@H]2c2oc(-c3ccc(F)cc3F)nc2-c2ccc(N3CCS(=O)(=O)CC3)cc2)CC1` [Example 41, (1R,2R,5S)-N-(1-cyanocyclopropyl)-2-(2-(2,4-difluorophenyl)-4-(4-(1,1-dioxidothiomorpholino)phenyl)oxazol-5-yl)-5-fluorocyclohexane-carboxamide], in that order: 2190 nM and 1.41 nM.
For `N#CC1(NC(=O)[C@@H]2C[C@@H](F)CC[C@H]2c2oc(C(F)(F)C(F)(F)F)nc2-c2ccc(N3CCS(=O)(=O)CC3)cc2)CC1` [Example 42, (1R,2R,5S)-N-(1-cyanocyclopropyl)-2-(4-(4-(1,1-dioxidothiomorpholino)phenyl)-2-(perfluoroethyl)oxazol-5-yl)-5-fluorocyclohexane-carboxamide], in that order: 1860 nM and 2.41 nM.
Turning to `CC(C)(C#N)NC(=O)[C@@H]1CCCC[C@H]1c1oc(-c2ccc(F)cc2F)nc1-c1ccc(N2CCS(=O)(=O)CC2)cc1` [Example 43, (1R,2R)-N-(2-cyanopropan-2-yl)-2-(2-(2,4-difluorophenyl)-4-(4-(1,1-dioxidothiomorpholino)phenyl)oxazol-5-yl)cyclohexanecarboxamide], the values for the IC50 at human cathepsin F and at human cathepsin K were 1650 nM and 15.7 nM, respectively.
For `N#CCNC(=O)[C@@H]1CCCC[C@H]1c1oc(-c2ccc(F)cc2F)nc1-c1ccc(N2CCS(=O)(=O)CC2)cc1` [Example 44, (1R,2R)-N-(cyanomethyl)-2-(2-(2,4-difluorophenyl)-4-(4-(1,1-dioxidothiomorpholino)phenyl)oxazol-5-yl)cyclohexanecarboxamide], in that order: 229 nM and 0.67 nM.
For `CN(C(=O)OC(C)(C)C)c1ccc(-c2nc(-c3ccc(F)cc3)oc2[C@@H]2CCCC[C@H]2C(=O)NC2(C#N)CC2)cc1` [Example 48, tert-butyl (4-(5-((1R,2R)-2-((1-cyanocyclopropyl)carbamoyl)cyclohexyl)-2-(4-fluorophenyl)oxazol-4-yl)phenyl)(methyl)carbamate], in that order: 176 nM and 7.4 nM.
For `CC(C)(C)OC(=O)Nc1ccc(-c2nc(-c3ccc(F)cc3)oc2[C@@H]2CCCC[C@H]2C(=O)NC2(C#N)CC2)cc1` [Example 49, tert-butyl (4-(5-((1R,2R)-2-((1-cyanocyclopropyl)carbamoyl)cyclohexyl)-2-(4-fluorophenyl)oxazol-4-yl)phenyl)carbamate], in that order: 1340 nM and 4.01 nM.
`N#CC1(NC(=O)[C@@H]2CCCC[C@H]2c2oc(Cc3ccccc3)nc2-c2ccc(N3CCS(=O)(=O)CC3)cc2)CC1` [Example 50, (1R,2R)-2-(2-benzyl-4-(4-(1,1-dioxidothiomorpholino)phenyl)oxazol-5-yl)-N-(1-cyanocyclopropyl) cyclohexanecarboxamide]: the figures for the IC50 at human cathepsin F and on human cathepsin K were 698 nM and 1.6 nM, respectively.
For `N#CC1(NC(=O)[C@@H]2CCCC[C@H]2c2oc(CC3CCCCC3)nc2-c2ccc(N3CCS(=O)(=O)CC3)cc2)CC1` [Example 51, (1R,2R)-N-(1-cyanocyclopropyl)-2-(2-(cyclohexylmethyl)-4-(4-(1,1-dioxidothiomorpholino)phenyl)oxazol-5-yl)cyclohcxanecarboxamide], in that order: 400 nM and 1.69 nM.
For `CC1(c2nc(-c3ccc(N4CCS(=O)(=O)CC4)cc3)c([C@@H]3CCCC[C@H]3C(=O)NC3(C#N)CC3)o2)CCC(F)(F)CC1` [Example 52, (1R,2R)-N-(1-cyanocyclopropyl)-2-(2-(4,4-difluoro-1-methylcyclohexyl)-4-(4-(1,1-dioxidothiomorpholino)phenyl)oxazol-5-yl)cyclohexanecarboxamide], in that order: 820 nM and 2.51 nM.
For `CC1(c2nc(-c3ccc(N4CCS(=O)(=O)CC4)cc3)c([C@@H]3CCCC[C@H]3C(=O)NC3(C#N)CC3)o2)CC[Si](C)(C)CC1` [Example 53, (1R,2R)-N-(1-cyanocyclopropyl)-2-(4-(4-(1,1-dioxidothiomorpholino)phenyl)-2-(1,1,4-trimethylsilinan-4-yl)oxazol-5-yl)cyclohexanecarboxamide], in that order: 582 nM and 1.93 nM.
Turning to `Cc1nc(-c2ccc(N3CCS(=O)(=O)CC3)cc2)c([C@@H]2CCCC[C@H]2C(=O)NC2(C#N)CC2)s1` [Example 54, (1R,2R)-N-(1-cyanocyclopropyl)-2-(4-(4-(1,1-dioxidothiomorpholino)phenyl)-2-methylthiazol-5-yl)cyclohexanecarboxamide], the results for the IC50 on human cathepsin F and on human cathepsin K were 5310 nM and 2.31 nM, respectively.
For `Cc1nc(-c2ccc(N3CC(S(C)(=O)=O)C3)cc2)c([C@@H]2CCCC[C@H]2C(=O)NC2(C#N)CC2)s1` [Example 55, (1R,2R)-N-(1-cyanocyclopropyl)-2-(2-mcthyl-4-(4-(3-(methylsulfonyl)azetidin-1-yl)phenyl)thiazol-5-yl)cyclohexanecarboxamide], in that order: 5480 nM and 4.15 nM.
For `N#CC1(NC(=O)[C@@H]2CCCC[C@H]2c2sc(-c3ccc(F)cc3)nc2-c2ccc(N3CCS(=O)(=O)CC3)cc2)CC1` [Example 56, (1R,2R)-N-(1-cyanocyclopropyl)-2-(4-(4-(1,1-dioxidothiomorpholino)phenyl)-2-(4-fluorophenyl)thiazol-5-yl)cyclohexanecarboxamide], in that order: 722 nM and 3.19 nM.
For `N#CC1(NC(=O)[C@@H]2CC(F)(F)CC[C@H]2c2sc(CC(F)(F)F)nc2-c2ccc(N3CCS(=O)(=O)CC3)cc2)CC1` [Example 57, (1R,2R)-N-(1-cyanocyclopropyl)-2-(4-(4-(1,1-dioxidothiomorpholino)phenyl)-2-(2,2,2-trifluoroethyl)thiazol-5-yl)-5,5-difluorocyclohexane-carboxamide], in that order: 93 nM and 0.58 nM.

These data come from patent US9458181B2, “Cathepsin cysteine protease inhibitors” (Merck Sharp & Dohme Corp., priority 2013, dated 2016).
